In patent publication US20050063940A1, “Bioadhesive agent” (priority 2002, published 2005):

Experiment: Cross-over study of drug A blood levels with 1% Softigen or 1% Labrasol formulation
Parameters: species or system rabbits
Conditions: rabbit, in vivo
Experimental: In a cross-over study, 4 rabbits received drug A in a formulation containing 1% Softigen® (Sasol GmbH, Germany) (n=4) and 1% Labrasol® (Gattefosse, France) (n=4) and were sampled for blood samples after 0, 2, 5, 10, 15, 30, 45 and 60 min.

tmax: 6 min
Substance: macrogol-6-glycerol-caprylocaprate [PEG6-CCG]
